Laboratory results published in patent publication US20090197916A1, “SOLUBLE EPOXIDE HYDROLASE INHIBITORS FOR TREATMENT OF METABOLIC SYNDROME AND RELATED DISORDERS” (Arete Therapeutics, Inc, priority 2007, published 2009).

Molecular target: T1, PPARγ (Homo sapiens, UniProt P37231)
T1 sequence (P37231 1-505): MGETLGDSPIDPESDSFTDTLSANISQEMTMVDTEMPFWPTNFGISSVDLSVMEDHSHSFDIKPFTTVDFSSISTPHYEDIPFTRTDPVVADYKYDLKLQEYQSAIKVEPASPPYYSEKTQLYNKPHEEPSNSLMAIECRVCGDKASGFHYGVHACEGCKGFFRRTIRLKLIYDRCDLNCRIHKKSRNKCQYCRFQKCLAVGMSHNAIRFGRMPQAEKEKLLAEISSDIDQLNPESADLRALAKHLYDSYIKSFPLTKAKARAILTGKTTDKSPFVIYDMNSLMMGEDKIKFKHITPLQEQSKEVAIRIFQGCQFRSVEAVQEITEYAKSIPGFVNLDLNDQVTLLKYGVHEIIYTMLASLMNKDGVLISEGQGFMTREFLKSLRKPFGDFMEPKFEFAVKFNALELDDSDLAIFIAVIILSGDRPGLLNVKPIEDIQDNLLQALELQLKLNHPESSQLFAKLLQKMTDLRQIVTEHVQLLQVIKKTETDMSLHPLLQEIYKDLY
Experiment: standard PPARγ activation assay
Format: cell-based
Conditions: relative to standard reference

Q: For `CCCCCC1OC1C/C=C\C/C=C\C/C=C\CCCC(=O)O` (stereo not shown) [14, 15 EET, reference compound], which “PPARγ activation relative to troglitzone (100%)” value is on record?
A: Its value is 28%.
